Results reported in US20210346495A1, “METHODS AND COMPOSITIONS COMPRISING AN NFKB INHIBITOR AND AN ADJUVANT” (priority 2018, published 2021).
Entries after “also recorded” stand apart in the source; their conditions may differ.

What was measured:
[1] = test system: RAW 264.7 macrophages; experiment: RAW macrophage cytokine analysis, IL-6 with LPS (Example 3); format: cell-based, mouse; details: for inhibition of IL-6 expression in vitro: capsaicin 200 μM, honokiol 20 μM, WA 400 nM
Excerpt: To begin exploring alternative NF-κB inhibitors, the inventors examined the literature for promising candidates. Due to the strong correlation between NF-KB activation and sepsis, cancer and autoimmune disorders, a large library of NF-κB inhibitors have been identified. The inventors first wanted to analyze the potential of a variety small molecule NF-κB inhibitors to inhibit inflammation in vitro in combination with lipopolysaccharide (LPS), a TLR4 agonist. The inventors chose several common commercially available NF-κB inhibitors and tested them in RAW macrophages. […] To determine if immune potentiation was specific to NFkB or general to all anti-inflammatory molecules, the inventors included the most common, FDA approved anti-inflammatory drugs acetaminophen (10 mM) and ibuprofen (800 μM). The inventors treated RAW macrophages with inhibitors and LPS and assayed the supernatant for IL-6 secretion (FIG. 18A).
The inventors examined the activities of the synthesized compounds in order to understand how the various functional groups affect anti-inflammatory action or adaptive immune response (FIGS. 23, 25). The inventors treated RAW macrophages with honokiol derivatives and LPS and analyzed IL-6 expression. The addition of LPS alone without a honokiol derivative gave high levels of IL-6 expression (6848 pg/mL). The addition of honokiol decreased IL-6 levels to 260 pg/mL, a decrease of 26-fold.
RAW macrophage cytokine analysis: RAW 264.7 macrophages were passaged and plated in a cell culture treated 12-well plate at 0.5×10^6 cells/well in 1 mL DMEM containing 10% FBS. Cells were grown for 2 days. Media was exchanged for 1 mL DMEM containing 10% HIFBS. Inhibitors were added at indicated concentrations and incubated for 45 min. After 45 min, LPS was added at 100 ng/mL and incubated at 37° C. and 5% CO2 for 24 h. Cell supernatant was removed and analyzed using BD Cytometric Bead Array Mouse Inflammation Kit.

[2] = test system: RAW macrophages; experiment: IL-6 expression of RAW macrophages with LPS and NF-kB inhibitors (Example 2)
[3] = test system: ovalbumin (OVA); experiment: Anti-OVA antibody quantification day 21 (Example 3); format: in vivo, mouse
[4] = test system: systemic TNF-a and IL-6; experiment: Systemic cytokines after vaccination with NF-kB inhibitor, CpG and ovalbumin (Example 2); format: in vivo, mouse; details: one hour post-vaccination
[5] = test system: systemic TNF-a and IL-6; experiment: Systemic cytokines, AddaVax vaccines with CpG or Pam3CSK4 (Example 2); format: in vivo, mouse; details: CpG or Pam3CSK4, ovalbumin, one hour
[6] = test system: systemic cytokines; experiment: Plasma cytokine analysis after OVA/CpG/AddaVax vaccination (Example 3); format: in vivo, mouse; details: for systemic MCP-1 / systemic IFN-γ: combined with CpG; for systemic IFN-γ: 24 h; for systemic IL-6 vs CpG alone, dose study / systemic TNF-α vs CpG alone, all doses / systemic TNF-α, comparison between doses: honokiol 200, 400, 800 μg, capsaicin 1, 5, 20 μg
[7] = Pain response observed after vaccination; format: in vivo, mouse; details: original dose 20 μg
[8] = test system: systemic TNF-α and IL-6; experiment: Systemic cytokines after gp120 vaccination; format: in vivo, mouse; details: gp120 antigen, 1 h
Method: To examine how this would translate in vivo, the inventors vaccinated mice with CpG (50 μg), Pam3CSK4 (20 μg) and R848 (50 μg) using gp120 as the antigen.
Mice were anesthetized lightly with isoflurane and injected intramuscularly in the hind leg with 50 uL containing antigen, adjuvant and PBS. […] CpG dose, 50 μg. SN50, 500 TNF-aN, 30 μg. IL-6N, 30 μg.
Blood was collected from mice at specified time points in 0.2 mL heparin coated collection tubes (VWR Scientific). Serum was isolated via centrifugation 2000×g for 5 min. Supernatant was collected and stored at −80° C. until use. Serum was analyzed using BD Cytometric Bead Array Mouse Th1/Th2/Th17 cytokine kit or Mouse Inflammation cytokine kit according to manufacturer's protocol. Briefly, beads containing antibodies for desired cytokines were mixed with 50 μL serum and 50 μL PE detection reagent and incubated for 2 h. Beads were washed and analyzed using BD Accuri C6 flow cytometer. Data was analyzed using BD Accuri C6 software and Graphpad Prism.

[9] = test system: ovalbumin; experiment: Anti-ovalbumin antibody titer day 21, AddaVax vaccines (Example 2); format: in vivo, mouse
Excerpt: The inventors next wanted to examine how capsaicin, honokiol and WA would work with other TLR agonists. Additionally, the inventors wanted to compare these inhibitors to the most commonly used anti-inflammatory drugs, ibuprofen and acetaminophen. The inventors formulated the vaccines using AddaVax, an oil-in-water emulsion to ensure solubility of the inhibitors. The inventors used either CpG, a TLR 9 agonist or Pam3CSK4, a TLR 1/2 agonist as the immune adjuvant and ovalbumin as the antigen. The inventors analyzed systemic cytokines one hour post-vaccination. […] On day 21 the inventors analyzed the anti-ovalbumin antibody titer.

[10] = test system: non-human primate (NHP) primary peripheral blood mononuclear cells (PBMCs); experiment: NHP PBMCs stimulated with LPS with or without SN50; format: cell-based; details: 6 h
Method: To understand how this may translate to human vaccinations, the inventors treated THP-1 monocytes with […] LPS with or without SN50. […] Additionally, the inventors examined the effects of SN50 on non-human primate (NHP) primary peripheral blood mononuclear cells (PBMCs). The inventors stimulated NHP PBMCs with SN50 and LPS or LPS alone for 6 h and analyzed the cell supernatant for pro-inflammatory cytokines. […] This implies that SN50 may work similarly in NHP and humans as it does in mice.

[11] = inhibitor 45 min before 100 ng/mL LPS, 3 h
[12] = 100 μg OVA, 50 μg CpG + inhibitor, AddaVax, 1 h
[13] = 100 μg OVA, 50 μg CpG, AddaVax, 1 h

Q: For `COc1cc(CNC(=O)CCCCC=CC(C)C)ccc1O` [capsaicin, 8-methyl-N-vanillyl-6-nonenamide], which “inhibition of IL-6 expression in vitro” value [1] is on record?
A: most effective at inhibiting IL-6 expression in vitro

Q: What about the IL-6 expression [2, 11] of the same molecule?
A: reduced levels of IL-6

Q: What about the “anti-OVA antibodies in the serum vs CpG alone” value ([3]; 1 μg and 5 μg) of the same molecule?
A: did not change level of anti-OVA antibodies in the serum compared to CpG alone

Q: What about the “anti-OVA antibodies in the serum vs CpG alone” value ([3]; 20 μg) of the same molecule?
A: significantly increased serum levels

Q: And the “systemic IL-6” value [4]?
A: IL-6 levels consistent with PBS injection

Q: And the “systemic TNF-a” value [4]?
A: returning the systemic TNF-a levels to background

Q: And the “systemic IL-6” value [5]?
A: decreased to levels consistent with PBS

Q: What about the “systemic TNF-a” value [5] of the same molecule?
A: comparable to PBS alone

Q: And the “decrease of systemic TNF-α vs CpG” value [6, 12]?
A: 28 fold

Q: And the “reduction of systemic IL-6 vs CpG” value [6, 12]?
A: 20 fold

Q: What about the “systemic IL-6” value [6, 13] of the same molecule?
A: 47.4 pg/mL

Q: And the “systemic MCP-1” value [6]?
A: slightly elevated MCP-1 levels

Q: What about the “systemic IFN-γ” value [6] of the same molecule?
A: increased IFN-γ levels at 24 h compared to CpG alone

Q: And the “systemic IL-6 vs CpG alone, dose study” value ([6]; 1 h)?
A: only decreased with 400 μg and 800 μg honokiol and 20 μg capsaicin

Q: What about the “systemic TNF-α vs CpG alone, all doses” value ([6]; 1 h) of the same molecule?
A: decreased TNF-α levels significantly across all doses compared to CpG alone

Q: What about the “systemic TNF-α, comparison between doses” value ([6]; 1 h) of the same molecule?
A: Doses of 5 μg and 20 μg decreased levels of TNF-α significantly more than 1 μg

Q: And the pain response [7]?
A: pain response was observed

Q: Which IL-6 expression [2, 11] does the source give for `CC(/C=C/C(=O)NO)=C\[C@@H](C)C(=O)c1ccc(N(C)C)cc1` [TSA] here?
A: complete reduction of IL-6 to background levels

Q: With `O=c1cc(-c2ccc(O)c(O)c2)oc2cc(O)cc(O)c12` [luteolin] as the molecule, how does the IL-6 expression [2, 11] read?
A: decreases in proinflammatory cytokine activity without entirely blocking expression

Q: Which “systemic TNF-α and IL-6, effect of adding SN50 to the named adjuvant” value [8] does the source give for Pam3CSK4 here?
A: significant decrease in systemic cytokines

Q: What does the source list for `COc1cc(O)cc(O)c1C(=O)/C=C/c1ccccc1` [cardamonin, Cardamonin]?
A: IL-6 expression [2, 11]: completely inhibited IL-6 expression; IL-6 expression ([2]; inhibitor 45 min before 100 ng/mL LPS, 3 h, listed as Cardamonin): complete reduction of IL-6 to background levels; systemic TNF-a [4]: no change in systemic TNF-a levels compared to CpG alone

Q: Which “systemic TNF-α and IL-6, effect of adding SN50 to the named adjuvant” value [8] does the source give for `CCOCc1nc2c(N)nc3ccccc3c2n1CC(C)(C)O` [R848] here?
A: significant decrease in systemic cytokines

Q: For `CC(C)Cc1ccc(C(C)C(=O)O)cc1` (stereo not shown) [ibuprofen], which anti-ovalbumin antibody titer [9] is on record?
A: decreases in antibody titer

Q: And the “anti-OVA antibody level lower than CpG alone” value [3]?
A: 3.2 fold

Q: And the “systemic IL-6” value [5]?
A: less effective at decreasing systemic IL-6 levels

Q: What about the “decrease of systemic TNF-α vs CpG” value [6, 12] of the same molecule?
A: 1.4 fold

Q: What about the “systemic IL-6” value [6, 12] of the same molecule?
A: did not decrease IL-6 expression significantly

Q: What about the “systemic TNF-α” value [6, 13] of the same molecule?
A: 738 pg/mL

Q: For `CC1=C(CO)C(=O)O[C@@H]([C@@H](C)[C@H]2CC[C@H]3[C@@H]4C[C@H]5O[C@]56[C@@H](O)C=CC(=O)[C@]6(C)[C@H]4CC[C@]23C)C1` [WA, Withaferin A], which “inhibition of IL-6 expression in vitro” value [1] is on record?
A: most effective at inhibiting IL-6 expression in vitro

Q: And the IL-6 expression [2, 11]?
A: decreases in proinflammatory cytokine activity without entirely blocking expression; also recorded: completely inhibited IL-6 expression

Q: What about the “systemic IL-6” value [4] of the same molecule?
A: about a two-fold decrease in IL-6 levels

Q: What about the “systemic TNF-a” value [4] of the same molecule?
A: no change in systemic TNF-a levels compared to CpG alone

Q: And the “systemic IL-6” value [5]?
A: less effective at decreasing systemic IL-6 levels

Q: What about the “decrease of systemic TNF-α vs CpG” value [6, 12] of the same molecule?
A: 1.8 fold

Q: What about the “systemic IL-6” value [6, 12] of the same molecule?
A: did not decrease IL-6 expression significantly

Q: For `O=C(/C=C/c1ccc(O)c(O)c1)OCCc1ccccc1` [CAPE, Caffeic acid phenethyl ester], which IL-6 expression [2, 11] is on record?
A: complete reduction of IL-6 to background levels; also recorded: completely inhibited IL-6 expression

Q: What about the “systemic IL-6” value [4] of the same molecule?
A: about a two-fold decrease in IL-6 levels

Q: What about the “systemic TNF-a” value [4] of the same molecule?
A: no change in systemic TNF-a levels compared to CpG alone

Q: For `COc1cc(O)c2c(c1)/C=C/C[C@H](O)[C@H](O)C(=O)/C=C\C[C@H](C)OC2=O` [5-z-o, 5Z-7-Oxozeaenol], which IL-6 expression [2, 11] is on record?
A: complete reduction of IL-6 to background levels; also recorded: completely inhibited IL-6 expression

Q: Which results are given for `COc1cc(/C=C/C(=O)CC(=O)/C=C/c2ccc(O)c(OC)c2)ccc1O` [curcumin]?
A: IL-6 expression [2, 11]: did not demonstrate a change in IL-6 activity in vitro; systemic IL-6 [4]: did not significantly alter the IL-6 levels; systemic TNF-a [4]: increasing the average expression levels

Q: What does the source list for `C=CCc1ccc(O)c(-c2ccc(O)c(CC=C)c2)c1` [honokiol]?
A: inhibition of IL-6 expression in vitro [1]: most effective at inhibiting IL-6 expression in vitro; IL-6 expression ([1]; honokiol derivative study): 260 pg/mL; decrease of IL-6 vs LPS alone ([1]; honokiol derivative study): 26 fold; IL-6 expression [2, 11]: decreases in proinflammatory cytokine activity without entirely blocking expression; also recorded: reduced levels of IL-6; anti-OVA antibodies vs CpG alone, all doses ([3]; honokiol 200, 400, 800 μg): all doses of honokiol increased levels of anti-OVA antibodies compared to CpG alone; dose with the highest anti-OVA antibody level ([3]; honokiol 200, 400, 800 μg): 400 µg; systemic IL-6 [4]: about a two-fold decrease in IL-6 levels; systemic TNF-a [4]: reduced the TNF-a levels by two-fold; decrease in systemic IL-6 [5]: 4 fold; decrease of systemic TNF-α vs CpG [6, 12]: 2.3 fold; reduction of systemic IL-6 vs CpG [6, 12]: 3.5 fold; systemic IL-6 [6, 13]: 266 pg/mL; systemic MCP-1 [6]: slightly elevated MCP-1 levels; systemic IFN-γ [6]: increased IFN-γ levels at 24 h compared to CpG alone; systemic IL-6 vs CpG alone, dose study ([6]; 1 h): only decreased with 400 μg and 800 μg honokiol and 20 μg capsaicin; systemic TNF-α vs CpG alone, all doses ([6]; 1 h): significant decrease in TNF-α expression compared to CpG alone; systemic TNF-α, comparison between doses ([6]; 1 h): no significant difference between the different doses

Q: With lipopolysaccharide [LPS] as the molecule, how does the IL-6 expression ([1]; honokiol derivative study) read?
A: 6848 pg/mL

Q: What about the IL-6 expression ([2]; 100 ng/mL LPS, 3 h post-activation) of the same molecule?
A: 362 pg/mL

Q: What about the “TNF-α and IL-6 in the cell supernatant” value [10] of the same molecule?
A: high levels of TNF-α and IL-6

Q: For `Oc1ccc(C=Cc2cc(O)cc(O)c2)cc1` [resveratrol], which IL-6 expression [2, 11] is on record?
A: decreases in proinflammatory cytokine activity without entirely blocking expression

Q: Which results are given for `CC(=O)Nc1ccc(O)cc1` [acetaminophen]?
A: anti-ovalbumin antibody titer [9]: decreases in antibody titer; anti-OVA antibody level lower than CpG alone [3]: 2.4 fold; systemic IL-6 [5]: less effective at decreasing systemic IL-6 levels; decrease of systemic TNF-α vs CpG [6, 12]: 1.8 fold; systemic IL-6 [6, 12]: did not decrease IL-6 expression significantly
